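Assay format: 96-well plates, 48-hour exposure. Here, GI50 denotes the concentration required for 50% inhibition of growth.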 Active and inactive are the calls of the source. Rule as the data show it: active = GI50 up to about 1.1 µM and inactive = higher. Square brackets hold non-standard residues; d marks the D form. Peptide text beside a SMILES is read from it. Ac5c = NC1(C(=O)O)CCCC1
Experiments:
Test in all cases: inhibition of tumour cell growth, NCI panel, 48 h
786-0 = tested on: 786-0
HCT-116 = tested on: HCT-116
HOP-62 = tested on: HOP-62
HT-29 = tested on: HT-29
K562 = tested on: K562
LOX IMVI = tested on: LOX IMVI
M14 = tested on: M14
MCF7 = tested on: MCF7
MDA-N = tested on: MDA-N
OVCAR-3 = tested on: OVCAR-3
OVCAR-4 = tested on: OVCAR-4
OVCAR-5 = tested on: OVCAR-5
OVCAR-8 = tested on: OVCAR-8
SK-MEL-2 = tested on: SK-MEL-2
SK-OV-3 = tested on: SK-OV-3
SNB-75 = tested on: SNB-75
SW-620 = tested on: SW-620
UACC-62 = tested on: UACC-62
UO-31 = tested on: UO-31
HL-60 = tested on: HL-60

Measured: GI50

C=CCSc1nc2ccccc2c(=O)n1Cc1ccco1
inactive: 786-0 > 100 µM | HCT-116 82 µM | HOP-62 > 100 µM | HT-29 50.1 µM | K562 > 100 µM | LOX IMVI > 100 µM | M14 > 100 µM | MCF7 52.2 µM | MDA-N > 100 µM | OVCAR-3 68.7 µM | OVCAR-4 80.5 µM | OVCAR-5 > 100 µM | OVCAR-8 > 100 µM | SK-MEL-2 > 100 µM | SK-OV-3 > 100 µM | SNB-75 89.1 µM | SW-620 > 100 µM | UACC-62 > 100 µM | UO-31 91.6 µM

CNC(=O)c1nnn(Cc2ccccc2)c1S
inactive: 786-0 > 100 µM | HCT-116 > 100 µM | HOP-62 > 100 µM | HT-29 > 100 µM | K562 > 100 µM | M14 > 100 µM | MCF7 > 100 µM | MDA-N > 100 µM | OVCAR-3 > 100 µM | OVCAR-4 > 100 µM | OVCAR-5 > 100 µM | OVCAR-8 > 100 µM | SK-MEL-2 > 100 µM | SK-OV-3 > 100 µM | SNB-75 > 100 µM | SW-620 > 100 µM | UACC-62 > 100 µM | UO-31 > 100 µM

COC(=O)C(=O)C(C(=O)C(=O)Nc1ccc(C)cc1)c1nc2ccc(C(=O)c3ccccc3)cc2nc1O (stereo unspecified)
inactive: 786-0 > 100 µM | HCT-116 > 100 µM | HL-60 30.1 µM | HOP-62 46.9 µM | HT-29 7.83 µM | K562 42.2 µM | LOX IMVI > 100 µM | MDA-N 43.4 µM | OVCAR-3 > 100 µM | OVCAR-4 49 µM | OVCAR-5 > 100 µM | OVCAR-8 42.2 µM | SK-MEL-2 > 100 µM | SK-OV-3 > 100 µM | SNB-75 22.3 µM | SW-620 > 100 µM | UACC-62 > 100 µM | UO-31 51.2 µM

Cc1cc(C)c2c(=O)n(CN3CC4Nc5ccccc5C4C3)sc2n1 (stereo unspecified)
inactive: 786-0 17.2 µM | HCT-116 20.4 µM | HL-60 25.6 µM | HOP-62 35.6 µM | HT-29 21.3 µM | K562 27.9 µM | LOX IMVI 21.8 µM | M14 23.8 µM | MCF7 32.1 µM | MDA-N 19.5 µM | OVCAR-3 33.5 µM | OVCAR-4 21 µM | OVCAR-5 21 µM | OVCAR-8 21.2 µM | SK-MEL-2 22.5 µM | SK-OV-3 56 µM | SW-620 22.8 µM | UACC-62 23.8 µM | UO-31 16.3 µM

NCC(=O)NC1(C(=O)O)CCCC1 (H-Gly-[Ac5c]-OH)
inactive: 786-0 > 100 µM | HCT-116 > 100 µM | HOP-62 > 100 µM | HT-29 > 100 µM | K562 > 100 µM | LOX IMVI > 100 µM | M14 > 100 µM | MCF7 > 100 µM | MDA-N > 100 µM | OVCAR-3 > 100 µM | OVCAR-4 > 100 µM | OVCAR-5 > 100 µM | OVCAR-8 > 100 µM | SK-MEL-2 > 100 µM | SK-OV-3 > 100 µM | SNB-75 > 100 µM | SW-620 > 100 µM | UACC-62 > 100 µM | UO-31 > 100 µM

Cc1cn(CC2=NCC(C)(C)N2)c(=O)[nH]c1=O
inactive: 786-0 > 100 µM | HCT-116 > 100 µM | HOP-62 > 100 µM | HT-29 > 100 µM | K562 > 100 µM | LOX IMVI > 100 µM | M14 > 100 µM | MCF7 > 100 µM | MDA-N > 100 µM | OVCAR-5 > 100 µM | OVCAR-8 > 100 µM | SK-MEL-2 > 100 µM | SK-OV-3 > 100 µM | SNB-75 > 100 µM | SW-620 > 100 µM | UACC-62 > 100 µM | UO-31 > 100 µM

COc1cc(/C=C2/SC(c3ccccc3)N(c3ccc(NC(C)=O)cc3)C2=O)cc(OC)c1OC (stereo unspecified)
inactive: 786-0 > 100 µM | HCT-116 > 100 µM | HL-60 66.4 µM | HOP-62 > 100 µM | HT-29 > 100 µM | K562 49.4 µM | LOX IMVI 72.1 µM | M14 > 100 µM | MCF7 76.9 µM | MDA-N 82.6 µM | OVCAR-3 > 100 µM | OVCAR-4 > 100 µM | OVCAR-5 > 100 µM | OVCAR-8 > 100 µM | SK-MEL-2 > 100 µM | SK-OV-3 > 100 µM | SW-620 > 100 µM | UACC-62 > 100 µM | UO-31 48.8 µM

CCc1nnc(CC)n1-n1c(Cc2ccccc2)n[nH]c1=O
inactive: 786-0 > 100 µM | HCT-116 > 100 µM | HOP-62 > 100 µM | HT-29 > 100 µM | K562 > 100 µM | LOX IMVI > 100 µM | M14 > 100 µM | MCF7 > 100 µM | MDA-N > 100 µM | OVCAR-3 > 100 µM | OVCAR-4 > 100 µM | OVCAR-5 > 100 µM | OVCAR-8 > 100 µM | SK-MEL-2 > 100 µM | SK-OV-3 > 100 µM | SNB-75 > 100 µM | SW-620 > 100 µM | UACC-62 > 100 µM | UO-31 > 100 µM

COC(=O)c1ccccc1CC1Cc2cccc(C)c2C1=O (stereo unspecified)
inactive: 786-0 47.5 µM | HCT-116 23.8 µM | HOP-62 > 100 µM | HT-29 22.9 µM | K562 22.3 µM | LOX IMVI 22.4 µM | M14 34.8 µM | MCF7 26.6 µM | MDA-N 36.1 µM | OVCAR-3 33.7 µM | OVCAR-4 27.7 µM | OVCAR-5 57.5 µM | OVCAR-8 35 µM | SK-MEL-2 21.8 µM | SK-OV-3 38.9 µM | SNB-75 22.7 µM | SW-620 42.4 µM | UACC-62 30.5 µM | UO-31 22.7 µM

Fc1ccc(Nc2nnc(-c3ccccn3)s2)cc1
inactive: 786-0 > 100 µM | HCT-116 > 100 µM | HL-60 > 100 µM | HOP-62 > 100 µM | HT-29 > 100 µM | LOX IMVI > 100 µM | M14 > 100 µM | MCF7 3.47 µM | MDA-N > 100 µM | OVCAR-3 > 100 µM | OVCAR-4 > 100 µM | OVCAR-5 > 100 µM | OVCAR-8 > 100 µM | SK-MEL-2 > 100 µM | SK-OV-3 > 100 µM | SW-620 > 100 µM | UACC-62 > 100 µM

COc1cc2c(c(OC)c1)/C(=C/Sc1ccccc1)C(=O)N(C(C)(C)C)C2
inactive: 786-0 28.5 µM | HCT-116 16.4 µM | HL-60 25 µM | HOP-62 27.5 µM | HT-29 22.9 µM | K562 37.8 µM | LOX IMVI 18.8 µM | MCF7 29.8 µM | MDA-N 23.5 µM | OVCAR-3 22.5 µM | OVCAR-4 33.1 µM | OVCAR-5 52.6 µM | OVCAR-8 25.6 µM | SK-MEL-2 20.2 µM | SK-OV-3 14.2 µM | SW-620 38 µM | UACC-62 24.3 µM

COc1ccc(C23OCC(Cc4cc(OC)c(OC)cc42)C3CO)cc1OC (stereo unspecified)
inactive: 786-0 > 100 µM | HCT-116 > 100 µM | HL-60 > 100 µM | HOP-62 > 100 µM | K562 > 100 µM | LOX IMVI > 100 µM | M14 > 100 µM | MCF7 > 100 µM | OVCAR-3 > 100 µM | OVCAR-4 > 100 µM | OVCAR-5 > 100 µM | SK-MEL-2 > 100 µM | SK-OV-3 > 100 µM | SNB-75 > 100 µM | SW-620 > 100 µM | UACC-62 > 100 µM | UO-31 > 100 µM

CCOC(=O)Cc1cc(=O)oc2cc(O)ccc12
inactive: 786-0 > 100 µM | HCT-116 > 100 µM | HL-60 > 100 µM | HT-29 > 100 µM | K562 > 100 µM | LOX IMVI > 100 µM | M14 > 100 µM | MDA-N > 100 µM | OVCAR-3 > 100 µM | OVCAR-5 59.4 µM | OVCAR-8 > 100 µM | SK-MEL-2 > 100 µM | SK-OV-3 > 100 µM | SNB-75 > 100 µM | SW-620 > 100 µM | UACC-62 > 100 µM | UO-31 > 100 µM

C=CCN(C(=O)OC(C)(C)C)[C@H](C)C(=O)N[C@@H](C)C(=O)OC
inactive: 786-0 > 100 µM | HCT-116 > 100 µM | HL-60 1.2 µM | HOP-62 > 100 µM | HT-29 > 100 µM | K562 > 100 µM | LOX IMVI > 100 µM | M14 > 100 µM | MCF7 > 100 µM | MDA-N > 100 µM | OVCAR-3 > 100 µM | OVCAR-4 > 100 µM | OVCAR-5 > 100 µM | OVCAR-8 > 100 µM | SK-MEL-2 > 100 µM | SK-OV-3 > 100 µM | SW-620 > 100 µM | UACC-62 > 100 µM | UO-31 > 100 µM

CN(C)C(=O)OC(Cn1cncn1)(Cn1cncn1)c1ccc(Cl)cc1Cl
inactive: 786-0 > 100 µM | HL-60 > 100 µM | HOP-62 > 100 µM | HT-29 > 100 µM | K562 > 100 µM | LOX IMVI > 100 µM | M14 > 100 µM | MCF7 > 100 µM | OVCAR-3 > 100 µM | OVCAR-4 > 100 µM | OVCAR-5 > 100 µM | OVCAR-8 > 100 µM | SK-MEL-2 71.8 µM | SK-OV-3 > 100 µM | SNB-75 > 100 µM | SW-620 > 100 µM | UO-31 > 100 µM

— ChEMBL document CHEMBL1201862, “PubChem BioAssay data set” (2004)
